The term IC50 denotes the concentration that inhibits the measured activity by half.

One assay addresses T1, GST-JAK2(808-1132) (Homo sapiens, UniProt O60674).
T1 construct: GST-JAK2(808-1132); purchased Invitrogen (Carlsbad, USA) #4288
Description: JAK2 kinase assay (Caliper mobility shift, LabChip 3000). In kind it is biochemical. In short, it runs like this:
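Recombinant GST-JAK2(808-1132) kinase domain with FITC-labelled JAK3tide peptide substrate and ATP; 60 min at 30 °C, EDTA stop. Substrate/product ratio read by microfluidic mobility shift; compounds at 8 final concentrations, 10 to 0.003 μM.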

Assay [1] concerns JAK2-dependent nuclear translocation of STAT5-GFP in U-2 OS osteosarcoma cells. Description: STAT5 nuclear translocation assay (Cellomics), rhEpo stimulated U-2 OS STAT5-GFP cells. The format is cell-based. The conditions noted are these: Homo sapiens, U2OS; STAT5 translocation pathway. In a few lines: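 U-2 OS cells stably expressing STAT5a-GFP and EpoR pre-treated with compound (final 10 μM to 0.003 μM, 0.1% DMSO) for 30 min at 37° C., then stimulated 1 h with 5 U/ml rhEpo. Nuclear-cytoplasmic GFP differential quantified by automated imaging (≥1000 cells/well, Hoechst nuclear mask). IC50 from % translocation normalized to untreated and DMSO-stimulated controls.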

T1 sequence (O60674 808-1132): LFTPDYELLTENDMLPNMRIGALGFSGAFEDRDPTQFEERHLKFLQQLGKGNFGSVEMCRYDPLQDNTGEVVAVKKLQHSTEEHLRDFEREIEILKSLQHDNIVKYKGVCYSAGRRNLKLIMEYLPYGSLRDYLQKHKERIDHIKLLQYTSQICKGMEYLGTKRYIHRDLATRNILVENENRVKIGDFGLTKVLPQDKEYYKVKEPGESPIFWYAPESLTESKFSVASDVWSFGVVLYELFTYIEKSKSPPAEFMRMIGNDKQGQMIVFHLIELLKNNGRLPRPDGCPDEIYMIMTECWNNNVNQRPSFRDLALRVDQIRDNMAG

`C[C@@H]1CN(Cc2ccc(Nc3ncc4ccn(-c5cc(F)c(CN6CCCC6=O)c(F)c5)c4n3)cc2)C[C@H](C)N1` [Example 462, 1-(4-{2-[4-(cis-3,5-Dimethyl-piperazin-1-ylmethyl)-phenylamino]-pyrrolo[2,3-d]pyrimidin-7-yl}-2,6-difluoro-benzyl)-pyrrolidin-2-one]: the half-maximal inhibitory concentration (IC50) is no more than 3 nM at GST-JAK2(808-1132) and 51 nM in assay [1].
In the case of `Cc1ccc(Nc2ncc3ccn(-c4cc(F)c(CN5CCOCC5)c(F)c4)c3n2)cc1CN1CCC(F)(F)C1` [Example 393, [7-(3,5-Difluoro-4-morpholin-4-ylmethyl-phenyl)-7H-pyrrolo[2,3-d]pyrimidin-2-yl]-[3-(3,3-difluoro-pyrrolidin-1-ylmethyl)-4-methyl-phenyl]-amine], the half-maximal inhibitory concentration (IC50) on GST-JAK2(808-1132) came out at 13 nM; in assay [1] it was 52 nM.
The corresponding values for `Fc1cc(-n2ccc3cnc(Nc4ccnc(N5CCN(C6CC6)CC5)c4)nc32)cc(F)c1CN1CCOCC1` [Example 456, [2-(4-Cyclopropyl-piperazin-1-yl)-pyridin-4-yl]-[7-(3,5-difluoro-4-morpolin-4-ylmethyl-phenyl)-7H-pyrrolo[2,3-d]pyrimidin-2-yl]-amine] are no more than 3 nM and 1.9 nM.
Take `CN1CCN(Cc2cc(Nc3ncc4ccn(-c5cc(F)c(CN6CCOCC6)c(F)c5)c4n3)ccc2Cl)CC1` [Example 494, [4-Chloro-3-(4-methyl-piperazin-1-yl methyl)-phenyl]-[7-(3,5-difluoro-4-morpholin-4-ylmethyl-phenyl)-7H-pyrrolo[2,3-d]pyrimidin-2-yl]-amine]: the figures for the concentration for half-maximal inhibition (IC50) (on GST-JAK2(808-1132); in assay [1]) were no more than 3 nM and 394 nM, respectively.
`Cc1ccc(Nc2ncc3ccn(-c4cc(F)c(CN5CCOCC5)c(F)c4)c3n2)cc1Cn1ccnc1` [Example 412, [7-(3,5-Difluoro-4-morpholin-4-ylmethyl-phenyl)-7H-pyrrolo[2,3-d]pyrimidin-2-yl]-(3-imidazol-1-ylmethyl-4-methyl-phenyl)-amine]: the concentration for half-maximal inhibition (IC50) was no more than 3 nM on GST-JAK2(808-1132) and 26.5 nM in assay [1].
`C[C@@H]1CN[C@@H](C)CN1c1ccc(Nc2ncc3ccn(-c4ccc(S(=O)(=O)NC(C)(C)C)cc4)c3n2)cn1` (racemic) [Example 356, N-tert-Butyl-4-{2-[6-((2R,5S)-2,5-dimethyl-piperazin-1-yl)-pyridin-3-ylamino]-pyrrolo[2,3-d]pyrimidin-7-yl}-benzenesulfonamide]: the IC50 at GST-JAK2(808-1132) worked out at 3.2 nM; in assay [1], 5.9 nM.
Regarding `Cc1ccc(Nc2ncc3ccn(-c4cc(F)c(CN5CCOCC5)c(F)c4)c3n2)cc1CN1CCN(C2CC2)CC1` [Example 365, [3-(4-Cyclopropyl-piperazin-1-ylmethyl)-4-methyl-phenyl]-[7-(3,5-difluoro-4-morpholin-4-ylmethyl-phenyl)-7H-pyrrolo[2,3-d]pyrimidin-2-yl]-amine], the figures for the half-inhibitory concentration (IC50) (at GST-JAK2(808-1132); in assay [1]) were 4.6 nM and 43 nM, respectively.
For `Fc1cc(-n2ccc3cnc(Nc4ccc(OCCN5CCOCC5)nc4)nc32)cc(F)c1CN1CCOCC1` [Example 513, [7-(3,5-Difluoro-4-morpholin-4-ylmethyl-phenyl)-7H-pyrrolo[2,3-d]pyrimidin-2-yl]-[6-(2-morpholin-4-yl-ethoxy)-pyridin-3-yl]-amine], the IC50 on GST-JAK2(808-1132) was found to be 4.6 nM; in assay [1], 116 nM.
The corresponding values for `Fc1cc(-n2ccc3cnc(Nc4ccc(C5CNCCO5)cc4)nc32)cc(F)c1CN1CCOCC1` (racemic) [Example 354, [7-(3,5-Difluoro-4-morpholin-4-ylmethyl-phenyl)-7H-pyrrolo[2,3-d]pyrimidin-2-yl]-(4-morpholin-2-yl-phenyl)-amine] are no more than 3 nM and 1.3 nM.
With `Cc1cc(Nc2ncc3ccn(-c4cc(F)c(CN5CCS(=O)(=O)CC5)c(F)c4)c3n2)cnc1N1C[C@@H](C)N[C@@H](C)C1` [Example 429], the IC50 was no more than 3 nM at GST-JAK2(808-1132) and 41 nM in assay [1].
Regarding `Fc1cc(-n2ccc3cnc(Nc4ccnc(CN5CCC(F)(F)C5)c4)nc32)cc(F)c1CN1CCOCC1` [Example 402, [7-(3,5-Difluoro-4-morpholin-4-ylmethyl-phenyl)-7H-pyrrolo[2,3-d]pyrimidin-2-yl]-[2-(3,3-difluoro-pyrrolidin-1-ylmethyl)-pyridin-4-yl]-amine], the IC50 at GST-JAK2(808-1132) is no more than 3 nM; in assay [1] it was 1370 nM.
For `Cc1ccc(Nc2ncc3ccn(-c4cc(F)c(CN5CCOCC5)c(F)c4)c3n2)cc1CN1C[C@@H](C)N[C@@H](C)C1` [Example 355, [7-(3,5-Difluoro-4-morpholin-4-yl methyl-phenyl)-7H-pyrrolo[2,3-d]pyrimidin-2-yl]-[3-(cis-3,5-dimethyl-piperazin-1-ylmethyl)-4-methyl-phenyl]-amine] the same measures were 3.7 nM and 5.3 nM.
For `O=C1CNCCN1c1ccc(Nc2ncc3ccn(-c4cc(F)c(CN5CCOCC5)c(F)c4)c3n2)cn1` [Example 470, 1-{5-[7-(3,5-Difluoro-4-morpholin-4-ylmethyl-phenyl)-7H-pyrrolo[2,3-d]pyrimidin-2-ylamino]-pyridin-2-yl}-piperazin-2-one] the same measures were 61 nM and 17 nM.
Take `Cc1ccc(Nc2ncc3ccn(-c4ccc(C(=O)N5CCOCC5)c(F)c4)c3n2)cc1CN1CCNC(C)(C)C1` [Example 386, (4-{2-[3-(3,3-Dimethyl-piperazin-1-ylmethyl)-4-methyl-phenylamino]-pyrrolo[2,3-d]pyrimidin-7-yl}-2-fluoro-phenyl)-morpholin-4-yl-methanone]: the half-inhibitory concentration (IC50) at GST-JAK2(808-1132) came to 110 nM; in assay [1] it was 101 nM.
For `O=C1CN(c2ncc(Nc3ncc4ccn(-c5cc(F)c(CN6CCOCC6)c(F)c5)c4n3)cc2Cl)CCN1` [Example 491, 4-{3-Chloro-5-[7-(3,5-difluoro-4-morpholin-4-ylmethyl-phenyl)-7H-pyrrolo[2,3-d]pyrimidin-2-ylamino]-pyridin-2-yl}-piperazin-2-one] the same measures were no more than 3 nM and 15 nM.
For `CN1CCN(c2ccc(Nc3ncc4ccn(-c5cc(F)c(CN6CCOCC6)c(F)c5)c4n3)nc2)CC1` [Example 377, [7-(3,5-Difluoro-4-morpholin-4-ylmethyl-phenyl)-7H-pyrrolo[2,3-d]pyrimidin-2-yl]-[5-(4-methyl-piperazin-1-yl)-pyridin-2-yl]-amine], the 50% inhibitory concentration (IC50) at GST-JAK2(808-1132) was 49 nM; in assay [1] it was greater than 2600 nM.
The corresponding values for `Cc1ccc(Nc2ncc3ccn(-c4cc(F)c(CN5CCOCC5)c(F)c4)c3n2)cc1CN1CCNC(C(F)(F)F)C1` (racemic) [Example 404, [7-(3,5-Difluoro-4-morpholin-4-ylmethyl-phenyl)-7H-pyrrolo[2,3-d]pyrimidin-2-yl]-[4-methyl-3-(3-trifluoromethyl-piperazin-1-ylmethyl)-phenyl]-amine] are 5.6 nM and 141 nM.
The corresponding values for `Cc1ccc(Nc2ncc3ccn(-c4cc(F)c(CN5CCOCC5)c(F)c4)c3n2)cc1CN1CCC(N(C)C)C1` (racemic) [Example 434, [7-(3,5-Difluoro-4-morpholin-4-ylmethyl-phenyl)-7H-pyrrolo[2,3-d]pyrimidin-2-yl]-[3-(3-dimethylamino-pyrrolidin-1-ylmethyl)-4-methyl-phenyl]-amine] are no more than 3 nM and 31.5 nM.

These data come from patent publication US8420657B2 (Novartis AG, priority 2008, dated 2013).
